Values after ≈ are worked out from the molar mass of the structure shown. “Also recorded” adds a separate entry of the source. Where a SMILES comes first, the peptide text is derived from it.

One data set concerns tested pathogens. To be noted: reported for the parent peptide; cited from earlier work.
For data set [1], the system named is Gram-positive and Gram-negative bacteria (all bacterial strains tested). Briefly: MIC determination, summary over all tested bacterial strains. In kind it is cell-based. Particulars: summary over the six strains tested; MHB, 37 °C, 18 h, peptide 0.625 to 40 μg/mL. The method, then:
(§1) The antimicrobial activities of the peptides were tested against S. aureus ATCC29213, E. faecalis ATCC29212, E. coli ATCC25922, K. pneumoniae ATCC700603, P. aeruginosa ATCC27853 and A. baumannii ATCC19606. All these strains were purchased from the China Center of Type Culture Collection (CCTCC).
(§2) The antimicrobial activities of the peptides were determined as previously described. Briefly, the bacteria were incubated at 37 °C and 150 rpm until the log phase of growth. Next, the bacteria were diluted with Mueller-Hinton broth (MHB, Oxoid, UK) and prepared in a clear round-bottom polypropylene 96-well microtiter plate to achieve a final concentration of 5 × 10^5 colony-forming unit (CFU)/mL. Twofold serial dilutions of the peptides were added into each well with the concentrations ranging from 0.625 to 40 μg/mL. The mixed peptides and cells were cultured at 37 °C and 150 rpm for 18 h, and the optical density (OD) was measured at 630 nm. The minimum inhibitory concentration was defined as the lowest peptide concentration with no detectable bacterial growth.

The subject of data set [2] is Escherichia coli ATCC25922. Briefly: MIC determination (broth microdilution). It is filed as cell-based. To be noted: MHB, 5 × 10^5 CFU/mL, peptide 0.625 to 40 μg/mL, 37 °C, 18 h, OD 630 nm. As for the experimental part:
as §1, §2
(In broth dilution the organism is exposed to a series of concentrations in liquid medium.)

For data set [3], the system named is Klebsiella pneumoniae ATCC700603. Description: MIC determination (broth microdilution). It is filed as cell-based. Particulars: MHB, 5 × 10^5 CFU/mL, peptide 0.625 to 40 μg/mL, 37 °C, 18 h, OD 630 nm. As for the experimental part: as §1, §2
For data set [4], the system named is Staphylococcus aureus ATCC29213. Description: MIC determination (broth microdilution). In kind it is cell-based. Particulars: MHB, 5 × 10^5 CFU/mL, peptide 0.625 to 40 μg/mL, 37 °C, 18 h, OD 630 nm. The method, then: as §1, §2
The subject of data set [5] is Acinetobacter baumannii ATCC19606. Briefly: MIC determination (broth microdilution). It is filed as cell-based. To be noted: MHB, 5 × 10^5 CFU/mL, peptide 0.625 to 40 μg/mL, 37 °C, 18 h, OD 630 nm. As for the experimental part: as §1, §2
In data set [6] the test system is Enterococcus faecalis ATCC29212. Briefly: MIC determination (broth microdilution). In kind it is cell-based. To be noted: MHB, 5 × 10^5 CFU/mL, peptide 0.625 to 40 μg/mL, 37 °C, 18 h, OD 630 nm. As for the experimental part: as §1, §2
Data set [7] deals with Pseudomonas aeruginosa ATCC27853. Description: MIC determination (broth microdilution). To be noted: MHB, 5 × 10^5 CFU/mL, peptide 0.625 to 40 μg/mL, 37 °C, 18 h, OD 630 nm. It is filed as cell-based. As for the experimental part:
as §1, §2

The next data set concerns human red blood cells. Briefly: Hemolytic activity determination. It is filed as cell-based. Particulars: 2% (v/v) hRBCs, peptide 12.5-200 μg/mL, 37 °C, 1 h, absorbance 540 nm; 1% Triton X-100 = 100%; three independent experiments. The method, then:
The hemolytic activities of the peptides were determined against human red blood cells (hRBCs). Briefly, fresh hRBCs anticoagulated with sodium citrate were rinsed with 0.9% sodium chloride by centrifugation (1000× g, 5 min). Then, the cells were diluted to a final concentration of 2% (v/v) and prepared in a clear 96-well polypropylene microtiter plate. Next, the samples were mixed with a series of concentrations of the peptide (12.5, 25, 50, 100 and 200 μg/mL) and incubated at 37 °C for 1 h. After that, the samples were centrifuged (2000× g, 10 min), and the absorbances of the supernatants were measured at 540 nm to evaluate the release of hemoglobin. HRBCs treated with 1% Triton X-100 or 0.9% sodium chloride were taken as 100% and 0% hemolysis, respectively.

Data set [8] deals with mouse fibroblast cell line L929. Briefly: Cytotoxicity determination (CCK-8). It is filed as cell-based. Particulars: L929 cells, peptide 0-100 μg/mL, 24 h, CCK-8, OD 450 nm; three independent experiments. As for the experimental part:
To determine the cytotoxicity of the peptide, the mouse fibroblast cell L929 (8000 cells per well) were seeded in a 96-well plate and incubated for 24 h in Dulbecco’s modified Eagle’s medium (DMEM, Gibco, USA) supplemented with 10% fetal bovine serum (FBS, Gibco, USA), 2 mM/L L-glutamine, 100 U/mL penicillin and […] streptomycin (1% P/S, Invitrogen, USA) at 37 °C in a 5% CO2 atmosphere. Then, a series of concentrations of the peptide (0, 5, 10, 20, 40, 60, 80 and 100 μg/mL) were added into each well and incubation was performed for 24 h. After that, the cytotoxicity of the peptide was measured with the CCK8 cell counting kit (Yeasen, Shanghai, China) by measuring the optical density at 450 nm.

On to “G-VWDWIKKTAGKIWNSEPVKALKSQALNAAKNFVAEKIGATPS [Smp43]”, for which, in the data set with tested pathogens, the antimicrobial activity entry is on record as “poor antimicrobial activities; also recorded: poor antimicrobial activity”.
One may read the MIC as the least concentration at which growth counts as inhibited. A high value points to weaker potency. In the case of `CC[C@H](C)[C@H](NC(=O)[C@H](CCCCN)NC(=O)CNC(=O)[C@H](C)NC(=O)[C@@H](NC(=O)[C@H](CCCCN)NC(=O)[C@H](CCCCN)NC(=O)[C@@H](NC(=O)[C@H](Cc1c[nH]c2ccccc12)NC(=O)[C@H](CC(=O)O)NC(=O)[C@H](Cc1c[nH]c2ccccc12)NC(=O)[C@@H](NC(=O)CN)C(C)C)[C@@H](C)CC)[C@@H](C)O)C(=O)N[C@@H](Cc1c[nH]c2ccccc12)C(N)=O` [Smp43(1-14)] (H-GVWDWIKKTAGKIW-NH2), the “MICs against the tested Gram-positive and Gram-negative bacterial species” value in data set [1] was in the range of 5 to 10 µg/mL. In addition, the MIC in data set [2] worked out at 10 µg/mL (≈ 5.93 µM); in data set [3], 10 µg/mL (≈ 5.93 µM); in [4], 5 µg/mL (≈ 2.96 µM); in [5], 5 µg/mL (≈ 2.96 µM); in [6] it was 10 µg/mL (≈ 5.93 µM); in data set [7] it was 10 µg/mL (≈ 5.93 µM). In addition, the “HC10: the concentration of the peptide that causes 10% hemolysis of human red blood cells” value in the data set on human red blood cells stood at 75 µg/mL. In addition, the “IC10: the concentration of the peptide that causes 10% inhibition of cell growth” value in [8] was found to be 92 µg/mL.
Take `CC(C)C[C@H](NC(=O)[C@H](C)NC(=O)[C@H](CCC(N)=O)NC(=O)[C@H](CO)NC(=O)[C@H](CCCCN)NC(=O)[C@H](CC(C)C)NC(=O)[C@H](C)NC(=O)[C@H](CCCCN)NC(=O)[C@@H](NC(=O)[C@@H]1CCCN1C(=O)[C@H](CCC(=O)O)NC(=O)[C@H](CO)NC(=O)[C@@H](N)CC(N)=O)C(C)C)C(=O)N[C@@H](CC(N)=O)C(N)=O` [Smp43(15-28)] (H-NSEPVKALKSQALN-NH2): the MIC in data set [2], in data set [3], in [4], in data set [5], in data set [6] and in data set [7] was over 40 µg/mL in each case. The “HC10: the concentration of the peptide that causes 10% hemolysis of human red blood cells” value with human red blood cells is over 200 µg/mL.
Consider `CC[C@H](C)[C@H](NC(=O)[C@H](CCCCN)NC(=O)CNC(=O)[C@H](C)NC(=O)[C@@H](NC(=O)[C@H](CCCCN)NC(=O)[C@H](CCCCN)NC(=O)[C@@H](NC(=O)[C@H](Cc1c[nH]c2ccccc12)NC(=O)[C@H](CC(=O)O)NC(=O)[C@@H](N)Cc1c[nH]c2ccccc12)[C@@H](C)CC)[C@@H](C)O)C(=O)N[C@@H](Cc1c[nH]c2ccccc12)C(=O)N[C@@H](CC(N)=O)C(=O)N[C@@H](CO)C(N)=O` [Smp43(3-16)] (H-WDWIKKTAGKIWNS-NH2), for which the MIC in data set [2], in data set [3], in data set [4], in [5], in [6] and in [7] was over 40 µg/mL throughout. For the same compound, the “HC10: the concentration of the peptide that causes 10% hemolysis of human red blood cells” value in the data set with human red blood cells was over 200 µg/mL.
For `CC[C@H](C)[C@H](NC(=O)[C@H](CCCCN)NC(=O)CNC(=O)[C@H](C)NC(=O)[C@@H](N)[C@@H](C)O)C(=O)N[C@@H](Cc1c[nH]c2ccccc12)C(=O)N[C@@H](CC(N)=O)C(=O)N[C@@H](CO)C(=O)N[C@@H](CCC(=O)O)C(=O)N1CCC[C@H]1C(=O)N[C@H](C(=O)N[C@@H](CCCCN)C(=O)N[C@@H](C)C(=O)N[C@@H](CC(C)C)C(N)=O)C(C)C` [Smp43(9-22)] (H-TAGKIWNSEPVKAL-NH2), the MIC in data set [2], in data set [3], in data set [4], in [5], in data set [6] and in [7] was over 40 µg/mL throughout. Further, in the data set on human red blood cells, the “HC10: the concentration of the peptide that causes 10% hemolysis of human red blood cells” value was over 200 µg/mL.
Consider `CC[C@H](C)[C@H](NC(=O)[C@H](CCCCN)NC(=O)[C@H](CCC(=O)O)NC(=O)[C@H](C)NC(=O)[C@@H](NC(=O)[C@H](Cc1ccccc1)NC(=O)[C@H](CC(N)=O)NC(=O)[C@H](CCCCN)NC(=O)[C@H](C)NC(=O)[C@H](C)NC(=O)[C@H](CC(N)=O)NC(=O)[C@@H](N)CC(C)C)C(C)C)C(=O)NCC(=O)N[C@@H](C)C(N)=O` [Smp43(27-40)] (H-LNAAKNFVAEKIGA-NH2), for which the MIC in [2], in data set [3], in data set [4], in data set [5], in [6] and in data set [7] was over 40 µg/mL each time. Moreover, the “HC10: the concentration of the peptide that causes 10% hemolysis of human red blood cells” value in the data set with human red blood cells was over 200 µg/mL.
In the case of `CC[C@H](C)[C@H](NC(=O)[C@H](CCCCN)NC(=O)CNC(=O)[C@H](C)NC(=O)[C@@H](NC(=O)[C@H](CCCCN)NC(=O)[C@H](CCCCN)NC(=O)[C@@H](NC(=O)[C@@H](N)Cc1c[nH]c2ccccc12)[C@@H](C)CC)[C@@H](C)O)C(=O)N[C@@H](Cc1c[nH]c2ccccc12)C(=O)N[C@@H](CC(N)=O)C(=O)N[C@@H](CO)C(=O)N[C@@H](CCC(=O)O)C(=O)N1CCC[C@H]1C(N)=O` [Smp43(5-18)] (H-WIKKTAGKIWNSEP-NH2), the MIC in data set [2], in data set [3], in data set [4], in data set [5], in data set [6] and in data set [7] was over 40 µg/mL in each case. Besides, the “HC10: the concentration of the peptide that causes 10% hemolysis of human red blood cells” value with human red blood cells is over 200 µg/mL.
